Measured values from ChEMBL document CHEMBL3871292, “Evaluation of dipeptide nitriles as inhibitors of rhodesain, a major cysteine protease of Trypanosoma brucei” (Bioorg Med Chem Lett, 2017).

Key:
Trypanosoma brucei [1] = assay: Inhibition of Trypanosoma brucei rhodesain using Cbz-Phe-Arg-AMC as substrate at 20 uM by fluorescence-based assay
[2] = Inhibition of Trypanosoma brucei rhodesain using Cbz-Phe-Arg-AMC as substrate by fluorescence-based assay
Trypanosoma brucei [3] = assay: Inhibition of Trypanosoma brucei rhodesain using Cbz-Phe-Arg-AMC as substrate at 0.05 to 20 uM by fluorescence-based assay; settings: TDE = time-dependent effect
[4] = system: Trypanosoma brucei brucei; assay: Antitrypanosomal activity against Trypanosoma brucei brucei BS449 measured after 24 hrs using ATPlite-1 reagent by cell based luciferase reporter gene assay; format: functional; settings: BS449, 24 h
[5] = system: Trypanosoma brucei brucei; assay: Antitrypanosomal activity against Trypanosoma brucei brucei Trypanosoma brucei brucei BS449 measured after 48 hrs using ATPlite-1 reagent by cell based luciferase reporter gene assay; format: functional; settings: BS449, 48 h
[6] = system: Trypanosoma brucei brucei; assay: Antitrypanosomal activity against Trypanosoma brucei brucei BS449 measured after 72 hrs using ATPlite-1 reagent by cell based luciferase reporter gene assay; format: functional
Procathepsin L = Procathepsin L (Homo sapiens, UniProt P07711); assay: Inhibition of human cathepsin L using Z-Phe-Arg-pNA as substrate measured after 10 to 80 mins by spectrophotometric method
Procathepsin L, sequence (P07711 whole entry): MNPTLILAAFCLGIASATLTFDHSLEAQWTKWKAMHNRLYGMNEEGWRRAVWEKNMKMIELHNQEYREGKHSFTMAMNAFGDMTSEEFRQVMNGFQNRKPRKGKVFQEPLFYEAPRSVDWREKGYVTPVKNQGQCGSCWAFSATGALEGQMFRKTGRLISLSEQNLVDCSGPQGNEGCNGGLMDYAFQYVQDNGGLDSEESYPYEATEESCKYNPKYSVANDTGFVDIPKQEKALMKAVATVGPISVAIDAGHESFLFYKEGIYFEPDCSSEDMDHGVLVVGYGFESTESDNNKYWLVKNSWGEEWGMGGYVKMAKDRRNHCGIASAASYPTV

[7] = Stability of the compound in HMI-9 medium measured after 48 hrs; format: physicochemical
[8] = Competitive inhibition of Trypanosoma brucei rhodesain in presence of varying levels of Cbz-Phe-Arg-AMC substrate by Cheng-Prusoff equation analysis
[9] = Inhibition of Trypanosoma brucei rhodesain using 10 uM of Cbz-Phe-Arg-AMC as substrate by Cheng-Prusoff equation analysis
[10] = Selectivity index, ratio of Ki for human cathepsin L to Ki for competitive inhibition of Trypanosoma brucei rhodesain
[11] = Solubility of the compound in HMI-9 medium; format: physicochemical
[12] = Solubility of the compound in PBS; format: physicochemical; settings: buffer
[13] = Trypanosoma brucei, BS449, 72 h, read-out: EC50
[14] = Trypanosoma brucei, BS449, 72 h, read-out: pEC50 (converted)

CC(C)CS(=O)(=O)CC(NC(=O)c1ccc(-c2cccs2)s1)C(=O)NCC#N (racemic)
inhibition (Trypanosoma brucei [1]): > 50%
Ki [2]: 900 nM

CC(C)(C)OC(=O)N[C@@H](Cc1ccc(-c2ccccc2)cc1)C(=O)NCC#N
inhibition (Trypanosoma brucei [1]): > 50%
Ki [2]: 52 nM

CC(C)(C)OC(=O)N[C@@H](Cc1cccc(F)c1)C(=O)NCC#N
inhibition (Trypanosoma brucei [1]): > 50%
Ki [2]: 73.8 nM

CCN(CC)c1ccc2cc(C(=O)NC3(C(=O)NCC#N)CCCCC3)c(=O)oc2c1
inhibition (Trypanosoma brucei [1]): > 50%
Ki [2]: 790 nM

CC(C)(C)OC(=O)N[C@@H](Cc1ccc(Br)cc1)C(=O)NCC#N
inhibition (Trypanosoma brucei [1]): > 50%
inhibition (Trypanosoma brucei [3]): Tde
Ki [2]: 12.3 nM
EC50 ([4]; read-out: EC50): 43000 nM
EC50 ([5]; read-out: EC50): 104000 nM
EC50 [6, 13]: 129000 nM
EC50 [6, 14]: 130000 nM

CC(C)CS(=O)(=O)CC(NC(=O)c1ccc(-c2nnn[nH]2)s1)C(=O)NCC#N (racemic)
inhibition (Trypanosoma brucei [1]): 16%

CC(C)C[C@H](NC(=O)Nc1ccc(-c2noc(-c3cccs3)n2)cc1)C(=O)NCC#N
inhibition (Trypanosoma brucei [1]): > 50%
Ki [2]: 172 nM

CC(C)(C)OC(=O)N[C@@H](Cc1ccco1)C(=O)NCC#N
inhibition (Trypanosoma brucei [1]): > 50%
Ki [2]: 615 nM

COc1ccc(C[C@H](NC(=O)OCc2ccccc2)C(=O)NCC#N)cc1
inhibition (Trypanosoma brucei [1]): > 50%
Ki [2]: 26 nM

CC(C)CS(=O)(=O)CC(NC(=O)c1cc2ccccc2s1)C(=O)NCC#N (racemic)
inhibition (Trypanosoma brucei [1]): 15%

CC(C)(C)OC(=O)N[C@@H](Cc1ccc(O)cc1)C(=O)NCC#N
inhibition (Trypanosoma brucei [1]): > 50%
Ki [2]: 47 nM

N#CCNC(=O)C1(NC(=O)OCc2ccccc2)CCCCC1
inhibition (Trypanosoma brucei [1]): 22%
Ki (Procathepsin L): > 5000 nM

CC[C@H](NC(=O)OC(C)(C)C)C(=O)NCC#N
inhibition (Trypanosoma brucei [1]): 10%

CC(C)CS(=O)(=O)CC(NC(=O)c1cc2ccsc2s1)C(=O)NCC#N (racemic)
inhibition (Trypanosoma brucei [1]): 25%

CC(C)(C)OC(=O)N[C@@H](Cc1csc2ccccc12)C(=O)NCC#N
inhibition (Trypanosoma brucei [1]): > 50%
Ki [2]: 90 nM

N#CCNC(=O)[C@H](Cc1ccc(O)cc1)NC(=O)OCc1ccccc1
inhibition (Trypanosoma brucei [1]): > 50%
Ki [2]: 44.6 nM

CC[C@H](C)[C@H](NC(=O)OC(C)(C)C)C(=O)NCC#N
inhibition (Trypanosoma brucei [1]): > 50%
Ki [2]: 1470 nM

CC(C)(C)OC(=O)N[C@@H](Cc1cccc(Br)c1)C(=O)NCC#N
inhibition (Trypanosoma brucei [1]): > 50%
Ki [2]: 27.6 nM

CC(C)(C)OC(=O)N[C@@H](Cc1ccccc1F)C(=O)NCC#N
inhibition (Trypanosoma brucei [1]): > 50%
Ki [2]: 49.2 nM
EC50 ([4]; read-out: EC50): 77000 nM
EC50 ([5]; read-out: EC50): 70000 nM
EC50 [6]: Nd(Unstable)
Stability [7]: Unstable

CC(C)(C)OC(=O)N[C@@H](Cc1ccsc1)C(=O)NCC#N
inhibition (Trypanosoma brucei [1]): > 50%
Ki [2]: 387 nM

CN(C)c1cccc2c(S(=O)(=O)NC3(C(=O)NCC#N)CCCCC3)cccc12
inhibition (Trypanosoma brucei [1]): 11%

CC(C)(C)OC(=O)N[C@@H](CC1CC1)C(=O)NCC#N
inhibition (Trypanosoma brucei [1]): 30%

CC(C)CS(=O)(=O)CC(NC(=O)c1cccs1)C(=O)NCC#N (racemic)
inhibition (Trypanosoma brucei [1]): 9%

CC(C)(C)OC(=O)N[C@@H](Cc1c[nH]c2ccccc12)C(=O)NCC#N
inhibition (Trypanosoma brucei [1]): > 50%
Ki [2]: 125 nM

N=C(NCCCCCCNC(=N)NC(=N)Nc1ccc(Cl)cc1)NC(=N)Nc1ccc(Cl)cc1 [CHLORHEXIDINE]
EC50 ([4]; read-out: EC50): 440 nM
EC50 ([4]; read-out: pEC50 (converted)): 441 nM
EC50 ([5]; read-out: EC50): 321 nM
EC50 ([5]; read-out: pEC50 (converted)): 321 nM
EC50 [6, 13]: 349 nM
EC50 [6, 14]: 350 nM

CC(C)(C)OC(=O)N[C@H](CC(=O)NC#N)Cc1ccccc1
inhibition (Trypanosoma brucei [1]): > 50%
Ki [2]: 1270 nM

CC(C)(C)OC(=O)N[C@@H](Cc1ccccc1)C(=O)NCC#N
inhibition (Trypanosoma brucei [1]): > 50%
Ki [2]: 55 nM

CN(C)c1cccc2c(S(=O)(=O)N[C@@H](Cc3ccccc3)C(=O)NCC#N)cccc12
inhibition (Trypanosoma brucei [1]): > 50%
Ki [2]: 413 nM

N#CCNC(=O)[C@H](Cc1ccccc1)NC(=O)OCc1ccccc1
inhibition (Trypanosoma brucei [1]): > 50%
Ki [2]: 42 nM
EC50 ([4]; read-out: EC50): 63000 nM
EC50 ([5]; read-out: EC50): 79000 nM
EC50 [6]: Nd(Unstable)
Stability [7]: Unstable

CC(C)C[C@H](NC(=O)c1ccc(-c2noc(-c3cccs3)n2)cc1)C(=O)NCC#N
inhibition (Trypanosoma brucei [1]): > 50%
inhibition (Trypanosoma brucei [3]): Tde
Ki [8]: 5.3 nM
Ki [9]: 9.2 nM
Ratio Ki [10]: 200
EC50 ([4]; read-out: EC50): 8000 nM
EC50 ([5]; read-out: EC50): 10000 nM
EC50 [6, 13]: 6000 nM
EC50 [6, 14]: 6190 nM
solubility [11]: Insoluble
solubility [12]: Insoluble

CC(C)CS(=O)(=O)CC(NC(=O)c1cc(-c2ccccc2)cs1)C(=O)NCC#N (racemic)
inhibition (Trypanosoma brucei [1]): > 50%
Ki [2]: 820 nM

CCCC[C@H](NC(=O)OC(C)(C)C)C(=O)NCC#N
inhibition (Trypanosoma brucei [1]): > 50%
Ki [2]: 750 nM

CC(C)CS(=O)(=O)CC(NC(=O)c1ccc(-c2ccccc2)s1)C(=O)NCC#N (racemic)
inhibition (Trypanosoma brucei [1]): 37%

CC(C)CS(=O)(=O)CC(NC(=O)c1ccc(-c2cccs2)cc1)C(=O)NCC#N (racemic)
inhibition (Trypanosoma brucei [1]): 25%

CC(C)CS(=O)(=O)CC(NC(=O)c1ccc(-c2ccsc2)s1)C(=O)NCC#N (racemic)
inhibition (Trypanosoma brucei [1]): 29%

CC(C)[C@H](NC(=O)OC(C)(C)C)C(=O)NCC#N
inhibition (Trypanosoma brucei [1]): > 50%
Ki [2]: 1490 nM

CC(C)(C)OC(=O)N[C@H](C(=O)NCC#N)c1ccccc1
inhibition (Trypanosoma brucei [1]): > 50%
Ki [2]: 795 nM

CC(C)(C)OC(=O)N[C@@H](Cc1ccc(F)cc1)C(=O)NCC#N
inhibition (Trypanosoma brucei [1]): > 50%
Ki [2]: 43.8 nM
EC50 ([4]; read-out: EC50): 169000 nM
EC50 ([5]; read-out: EC50): 105000 nM
EC50 [6, 13]: 217000 nM
EC50 [6, 14]: 217000 nM

N#CCNC(=O)[C@H](Cc1cccc(Br)c1)NC(=O)c1ccc(-c2ccccc2)cc1
inhibition (Trypanosoma brucei [1]): > 50%
inhibition (Trypanosoma brucei [3]): Tde
Ki [8]: 2.6 nM
Ki [9]: 9.2 nM
Ratio Ki [10]: 200

CC(C)(C)OC(=O)N[C@@H](CC1CCCCC1)C(=O)NCC#N
inhibition (Trypanosoma brucei [1]): > 50%
Ki [2]: 68 nM

N#CCNC(=O)C1(NC(=O)c2ccc(-c3noc(-c4cccs4)n3)cc2)CCCCC1
inhibition (Trypanosoma brucei [1]): > 50%
Ki [2]: 1540 nM
Ki (Procathepsin L): > 5000 nM

CC(C)(C)OC(=O)N[C@@H](COCc1ccccc1)C(=O)NCC#N
inhibition (Trypanosoma brucei [1]): > 50%
Ki [2]: 950 nM

CSCC[C@H](NC(=O)OC(C)(C)C)C(=O)NCC#N
inhibition (Trypanosoma brucei [1]): > 50%
Ki [2]: 1170 nM
